Data taken from ChEMBL document CHEMBL1128457, “New antihistamines: substituted piperazine and piperidine derivatives as novel H1-antagonists” (J Med Chem, 1995).

How the values were obtained:
[1] = target: Histamine H1 receptor (Cavia porcellus) (UniProt P31389); test: In vitro antagonism of histamine-induced contraction of guinea pig ileum at 1x10E-7M; format: functional, tissue-based
[2] = target: Histamine H1 receptor (Cavia porcellus) (UniProt P31389); test: Compound is evaluated for the inhibition of H1-receptor antagonists of histamine-induced skin wheal formation in the guinea pig with a pretreatment interval prior to histamine challenge at 1 h; format: functional
[3] = Dissociation constant (KD) of the compound
[4] = pA2 value is determined compared to standard H1-antagonists; format: ADME
[5] = Partition coefficient (logP); format: physicochemical; conditions: octanol/water
Cavia porcellus [6] = test: Compound is tested for protection by antihistamines against histamine-induced lethality in the guinea pig by oral administration with pretreatment period of 18 h; format: functional
Cavia porcellus [7] = test: Compound is tested for protection by antihistamines against histamine-induced lethality in the guinea pig by oral administration with a pretreatment period of 1 h; format: functional
[8] = target: Histamine H1 receptor (Cavia porcellus) (UniProt P31389); test: Compound is evaluated for the inhibition of H1-receptor antagonists of histamine-induced skin wheal formation in the guinea pig with a pretreatment interval prior to histamine challenge at 18 h; format: functional
[9] = target: T1, Muscarinic acetylcholine receptor M1 (Homo sapiens, UniProt P11229); test: Compound is evaluated for in vitro receptor binding affinity against Muscarinic acetylcholine receptor M1; design: species or system Cavia porcellus
T1 sequence (P11229 whole entry): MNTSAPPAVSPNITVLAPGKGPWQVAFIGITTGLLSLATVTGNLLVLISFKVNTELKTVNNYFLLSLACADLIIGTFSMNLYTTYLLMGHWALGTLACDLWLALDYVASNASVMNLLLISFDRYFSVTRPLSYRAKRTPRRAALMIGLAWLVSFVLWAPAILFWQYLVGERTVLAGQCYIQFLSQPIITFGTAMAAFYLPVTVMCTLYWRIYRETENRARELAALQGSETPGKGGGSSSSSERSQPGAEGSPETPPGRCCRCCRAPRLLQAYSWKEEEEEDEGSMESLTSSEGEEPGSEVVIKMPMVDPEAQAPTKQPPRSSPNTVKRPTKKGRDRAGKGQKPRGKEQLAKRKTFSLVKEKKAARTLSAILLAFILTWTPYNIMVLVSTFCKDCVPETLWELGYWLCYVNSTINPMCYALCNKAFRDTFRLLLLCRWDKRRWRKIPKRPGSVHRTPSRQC

[10] = target: T2, Adrenergic receptor alpha-1 (Homo sapiens, UniProt P35348+P25100+P35368); test: Compound is evaluated for in vitro receptor binding affinity against Alpha-1 adrenergic receptor; format: protein assay, Cavia porcellus
T2 sequence (P35348 whole entry): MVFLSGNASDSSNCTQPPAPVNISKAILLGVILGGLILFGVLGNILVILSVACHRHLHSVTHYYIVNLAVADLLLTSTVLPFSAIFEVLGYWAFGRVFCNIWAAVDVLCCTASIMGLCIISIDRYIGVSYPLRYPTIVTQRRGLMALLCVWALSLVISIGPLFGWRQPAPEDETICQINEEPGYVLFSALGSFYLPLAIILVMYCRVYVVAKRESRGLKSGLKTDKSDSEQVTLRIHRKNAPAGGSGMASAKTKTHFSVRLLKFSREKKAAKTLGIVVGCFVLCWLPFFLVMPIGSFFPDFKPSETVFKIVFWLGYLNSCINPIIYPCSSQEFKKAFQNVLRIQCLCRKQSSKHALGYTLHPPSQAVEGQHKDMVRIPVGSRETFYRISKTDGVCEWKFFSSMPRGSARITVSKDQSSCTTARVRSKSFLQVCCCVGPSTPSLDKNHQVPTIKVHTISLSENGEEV
T2 sequence (P25100 whole entry): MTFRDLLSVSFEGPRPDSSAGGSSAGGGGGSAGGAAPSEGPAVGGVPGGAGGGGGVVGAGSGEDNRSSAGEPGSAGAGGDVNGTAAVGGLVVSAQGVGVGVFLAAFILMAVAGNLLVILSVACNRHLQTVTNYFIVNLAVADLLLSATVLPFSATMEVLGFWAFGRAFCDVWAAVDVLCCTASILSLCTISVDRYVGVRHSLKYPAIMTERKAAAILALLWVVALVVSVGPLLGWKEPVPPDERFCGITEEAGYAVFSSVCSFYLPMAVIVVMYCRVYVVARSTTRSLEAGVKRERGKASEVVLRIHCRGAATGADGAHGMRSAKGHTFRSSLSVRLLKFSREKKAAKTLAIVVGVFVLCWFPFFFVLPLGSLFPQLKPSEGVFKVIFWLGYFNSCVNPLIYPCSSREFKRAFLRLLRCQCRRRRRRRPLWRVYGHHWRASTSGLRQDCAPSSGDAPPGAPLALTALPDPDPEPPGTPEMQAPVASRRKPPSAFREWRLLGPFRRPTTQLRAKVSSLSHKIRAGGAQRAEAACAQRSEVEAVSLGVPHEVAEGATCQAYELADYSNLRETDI
T2 sequence (P35368 whole entry): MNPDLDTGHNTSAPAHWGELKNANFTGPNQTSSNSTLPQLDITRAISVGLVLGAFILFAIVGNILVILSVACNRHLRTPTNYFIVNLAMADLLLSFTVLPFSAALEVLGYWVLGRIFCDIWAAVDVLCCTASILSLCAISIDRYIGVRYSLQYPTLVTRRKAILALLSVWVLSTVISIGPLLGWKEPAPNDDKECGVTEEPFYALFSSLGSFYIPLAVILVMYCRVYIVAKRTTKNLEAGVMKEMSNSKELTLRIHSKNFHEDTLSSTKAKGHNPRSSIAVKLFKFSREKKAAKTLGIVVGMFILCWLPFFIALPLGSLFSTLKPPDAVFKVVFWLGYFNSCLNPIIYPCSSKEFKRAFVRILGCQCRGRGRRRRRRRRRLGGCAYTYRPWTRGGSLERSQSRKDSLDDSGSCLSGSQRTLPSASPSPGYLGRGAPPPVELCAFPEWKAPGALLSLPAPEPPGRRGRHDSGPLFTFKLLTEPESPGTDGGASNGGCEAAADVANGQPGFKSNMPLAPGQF

D(2) dopamine receptor = D(2) dopamine receptor (Homo sapiens, UniProt P14416); test: Compound is evaluated for in vitro receptor binding affinity against Dopamine receptor D2; design: species or system Cavia porcellus
Chain of D(2) dopamine receptor (P14416 whole entry): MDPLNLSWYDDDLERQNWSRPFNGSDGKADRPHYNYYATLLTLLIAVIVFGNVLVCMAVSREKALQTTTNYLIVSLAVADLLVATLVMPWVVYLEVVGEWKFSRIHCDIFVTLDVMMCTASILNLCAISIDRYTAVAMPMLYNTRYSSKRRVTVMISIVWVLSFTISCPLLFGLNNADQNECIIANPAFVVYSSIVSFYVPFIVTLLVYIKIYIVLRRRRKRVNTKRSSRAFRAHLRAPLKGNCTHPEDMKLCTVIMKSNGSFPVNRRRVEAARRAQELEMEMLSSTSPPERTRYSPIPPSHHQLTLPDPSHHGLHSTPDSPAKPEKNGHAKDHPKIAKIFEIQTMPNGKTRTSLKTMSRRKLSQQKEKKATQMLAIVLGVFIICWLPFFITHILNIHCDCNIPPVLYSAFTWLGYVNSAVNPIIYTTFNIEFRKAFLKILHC

[11] = Potency relative to 7-[3-(4-Benzhydryloxy-piperidine-1-yl)-propyl]-1,3-dimethyl-3,7-dihydro-purine-2,6-dione; Relative potency = […]/[…]
Histamine H1 receptor = Histamine H1 receptor (Cavia porcellus, UniProt P31389); test: Compound is evaluated for in vitro receptor binding affinity against H1 receptor
Chain of Histamine H1 receptor (P31389 whole entry): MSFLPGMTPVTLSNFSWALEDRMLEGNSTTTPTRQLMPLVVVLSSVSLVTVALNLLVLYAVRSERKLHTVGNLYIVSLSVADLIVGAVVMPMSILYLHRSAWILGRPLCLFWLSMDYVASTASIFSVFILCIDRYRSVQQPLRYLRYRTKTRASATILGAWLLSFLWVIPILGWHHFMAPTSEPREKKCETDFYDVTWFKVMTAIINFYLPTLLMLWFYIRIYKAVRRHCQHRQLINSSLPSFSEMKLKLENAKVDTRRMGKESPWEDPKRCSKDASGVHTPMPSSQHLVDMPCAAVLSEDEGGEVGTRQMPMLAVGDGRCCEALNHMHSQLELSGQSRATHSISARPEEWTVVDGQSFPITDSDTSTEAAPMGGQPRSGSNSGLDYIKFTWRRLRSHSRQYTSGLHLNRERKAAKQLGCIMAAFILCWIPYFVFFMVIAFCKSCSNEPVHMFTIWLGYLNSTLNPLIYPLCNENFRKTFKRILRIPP

[12] = target: T3, 5-hydroxytryptamine receptor 1A (Homo sapiens, UniProt P08908); test: Compound is evaluated for in vitro receptor binding affinity against 5-hydroxytryptamine 1A receptor; design: species or system Cavia porcellus
T3 sequence (P08908 whole entry): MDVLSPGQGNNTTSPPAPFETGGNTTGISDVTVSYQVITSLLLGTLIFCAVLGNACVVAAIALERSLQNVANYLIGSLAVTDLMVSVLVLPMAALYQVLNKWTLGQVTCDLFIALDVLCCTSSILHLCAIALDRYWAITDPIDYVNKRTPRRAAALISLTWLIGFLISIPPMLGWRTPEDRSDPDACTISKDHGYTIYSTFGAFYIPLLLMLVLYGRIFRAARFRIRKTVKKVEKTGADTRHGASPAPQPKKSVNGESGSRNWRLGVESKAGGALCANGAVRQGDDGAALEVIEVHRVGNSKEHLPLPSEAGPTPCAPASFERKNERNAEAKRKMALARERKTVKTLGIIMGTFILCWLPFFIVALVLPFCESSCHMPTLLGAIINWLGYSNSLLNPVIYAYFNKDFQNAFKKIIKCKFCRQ

[13] = target: T4, Muscarinic acetylcholine receptor M2 (Homo sapiens, UniProt P08172); test: Compound is evaluated for in vitro receptor binding affinity against Muscarinic acetylcholine receptor M2; design: species or system Cavia porcellus
T4 sequence (P08172 whole entry): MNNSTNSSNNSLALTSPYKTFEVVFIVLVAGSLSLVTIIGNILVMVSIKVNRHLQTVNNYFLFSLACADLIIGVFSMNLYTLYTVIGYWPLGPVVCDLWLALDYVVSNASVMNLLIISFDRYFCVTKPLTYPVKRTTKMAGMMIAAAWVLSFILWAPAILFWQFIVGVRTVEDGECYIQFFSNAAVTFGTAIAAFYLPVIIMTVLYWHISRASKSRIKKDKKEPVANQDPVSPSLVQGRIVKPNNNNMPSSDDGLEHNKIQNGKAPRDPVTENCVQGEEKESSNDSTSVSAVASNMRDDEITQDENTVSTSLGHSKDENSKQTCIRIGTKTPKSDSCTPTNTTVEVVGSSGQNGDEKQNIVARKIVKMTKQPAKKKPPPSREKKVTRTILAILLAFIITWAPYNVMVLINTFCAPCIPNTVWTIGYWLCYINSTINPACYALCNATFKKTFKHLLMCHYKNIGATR

Chain of Histamine H1 receptor (Cavia porcellus) (P31389 whole entry): as the sequence (P31389 whole entry) above

Question: For `Cn1c(=O)c2c(ncn2CCCN2CCN(c3ccc(Cl)nn3)CC2)n(C)c1=O`, which inhibition [1] is on record?
Answer: 50%

Question: Which inhibition [1] does the source give for `O=C1C2C3C=CC(C4CC34)C2C(=O)N1CCCCN1CCN(C(c2ccccc2)c2ccccc2)CC1` (centres undefined) here?
Answer: 50%

Question: For `O=C1C2C3C=CC(C4CC34)C2C(=O)N1CCCCN1CCN(c2ccc(Cl)nn2)CC1` (centres undefined), which inhibition [1] is on record?
Answer: 76%

Question: With `O=C1C2C3C=CC(C4CC34)C2C(=O)N1CCN1CCN(C(c2ccc(F)cc2)c2ccc(F)cc2)CC1` (centres undefined) as the compound, how does the inhibition [1] read?
Answer: < 10%

Question: Which ED50 [2] does the source give for `COc1ccc(CCN2CCC(Nc3nc4ccccc4n3Cc3ccc(F)cc3)CC2)cc1` [ASTEMIZOLE] here?
Answer: 0.53 mg/kg

Question: And the Kd [3]?
Answer: 0.0055 µM

Question: What about the pA2 [4] of the same compound?
Answer: 8.3

Question: For `CC(C)(C)c1ccc(C(=O)CCCN2CCC(OC(c3ccccc3)c3ccccc3)CC2)cc1` [EBASTINE], which Kd [3] is on record?
Answer: 0.004 µM

Question: And the logP [5]?
Answer: 2.74

Question: What about the ED50 (Cavia porcellus [6]) of the same compound?
Answer: 1.71 mg/kg

Question: And the pA2 [4]?
Answer: 7.4

Question: What about the ED50 (Cavia porcellus [7]) of the same compound?
Answer: 0.45 mg/kg

Question: For `O=C1CC2(CCCC2)CC(=O)N1CCCCN1CCN(C(c2ccc(F)cc2)c2ccc(F)cc2)CC1`, which inhibition [1] is on record?
Answer: 77%

Question: For `O=C1C2C3C=CC(C4CC34)C2C(=O)N1CCCCN1CCN(C(c2ccc(F)cc2)c2ccc(F)cc2)CC1` (centres undefined), which inhibition [1] is on record?
Answer: 98%

Question: With `O=C1C2C3C=CC(C4CC34)C2C(=O)N1CCCN1CCN(C(c2ccc(F)cc2)c2ccc(F)cc2)CC1` (centres undefined) as the compound, how does the inhibition [1] read?
Answer: 29%

Question: For `Cn1c(=O)c2c(ncn2CCCN2CCN(C(c3ccccc3)c3ccc(Cl)cc3)CC2)n(C)c1=O` (centres undefined), which inhibition [1] is on record?
Answer: 29%

Question: For `O=C1C2C3C=CC(C4CC34)C2C(=O)N1CCCN1CCN(C(c2ccccc2)c2ccc(Cl)cc2)CC1` (centres undefined), which inhibition [1] is on record?
Answer: < 10%

Question: Which Kd [3] does the source give for `CC(C)(C)c1ccc(C(O)CCCN2CCC(C(O)(c3ccccc3)c3ccccc3)CC2)cc1` (centres undefined) [TERFENADINE] here?
Answer: 0.033 µM

Question: For `O=C1C2C3C=CC(C4CC34)C2C(=O)N1CCN1CCN(C(c2ccccc2)c2ccccc2)CC1` (centres undefined), which inhibition [1] is on record?
Answer: < 10%

Question: Which inhibition [1] does the source give for `Cn1c(=O)c2c(ncn2CCCCN2CCN(C(c3ccc(Cl)cc3)c3ccc(Cl)cc3)CC2)n(C)c1=O` here?
Answer: 14%

Question: With `CN(C)CCC(c1ccc(Cl)cc1)c1ccccn1` (centres undefined) [CHLORPHENIRAMINE] as the compound, how does the ED50 [2] read?
Answer: 0.79 mg/kg

Question: And the Kd [3]?
Answer: 0.0037 µM

Question: What about the pA2 [4] of the same compound?
Answer: 8.4

Question: What about the ED50 [8] of the same compound?
Answer: 1.07 mg/kg

Question: Which inhibition [1] does the source give for `Cn1c(=O)c2c(ncn2CCCN2CCN(c3cncc(Cl)n3)CC2)n(C)c1=O` here?
Answer: 29%

Question: For `Cl.Cl.Cn1c(=O)c2c(ncn2CCCN2CCN(C(c3ccc(F)cc3)c3ccc(F)cc3)CC2)n(C)c1=O`, which IC50 [9] is on record?
Answer: 0.67 µM

Question: And the IC50 [10]?
Answer: 0.059 µM

Question: And the inhibition [1]?
Answer: 92%

Question: What about the ED50 [2] of the same compound?
Answer: 0.45 mg/kg

Question: And the Kd [3]?
Answer: 0.0066 µM

Question: And the % inhibition (D(2) dopamine receptor)?
Answer: 43%

Question: And the logP [5]?
Answer: 1.81

Question: And the pA2 [4]?
Answer: 8.2

Question: What about the Relative potency [11] of the same compound?
Answer: 0.0012

Question: What about the IC50 (Histamine H1 receptor) of the same compound?
Answer: 0.22 µM

Question: What about the ED50 (Cavia porcellus [7]) of the same compound?
Answer: 1.96 mg/kg

Question: What about the % inhibition [12] of the same compound?
Answer: 38%

Question: And the IC50 [13]?
Answer: > 10 µM

Question: For `Cn1c(=O)c2c(ncn2CCCN2CCN(c3nccnc3Cl)CC2)n(C)c1=O`, which inhibition [1] is on record?
Answer: < 10%
